# Tests used:
# [1] = test system: patients with moderate to severe plaque psoriasis; experiment: COMFORT-1 phase 3 trial, efficacy (PASI, PGA2, PDI); type: in vivo, human
# [2] = COMFORT-1 phase 3 trial, pharmacokinetics (Cmax, AUC); type: in vivo, human; conditions: 2 mg BID arm compared with 3 mg BID arm; Weeks 0, 8, 16
# Experimental: The trial had 2 segments (FIG. 1). […] Blinding was maintained through Week 32.
# The primary endpoints included the proportion of patients achieving PASI 75 in the piclidenoson 2 mg and 3 mg BID arms vs. placebo at Week 16 (superiority) and safety. Secondary endpoints at Week 16 compared the piclidenoson arms to placebo and included the proportion of patients achieving PASI 50, the proportion of patients achieving a score of 0 or 1 in PGA2 (a PASI-based measure calculated using the intensity grading of components of the PASI score; specifically, it is the average of the PASI erythema, infiltration, and desquamation scores) [Gordon, K. B. et al. N Engl J Med 373, 136-144 (2015)], and the proportion of patients experiencing an improvement from BL in Psoriasis Disability Index (PDI). Additional secondary endpoints were evaluated at Week 32 and compared the piclidenoson arms to apremilast. These included the proportion of patients achieving PASI 75, PASI 50, PGA2 of 0 or 1, and the proportion of patients experiencing an improvement from BL in PDI. PK analysis, including calculating the peak concentration of the drug in the bloodstream after administration (Cmax), was conducted for Weeks 0, 8, and 16.
# [3] = test system: patients with moderate to severe plaque psoriasis; experiment: COMFORT-1 phase 3 trial, safety (TEAEs, ECG); conditions: for tolerability: 32-week study period; for serious TEAE (number): not considered drug related
# Description: The COMFORT-1 study was a phase 3 multicenter (with sites in Bosnia, Bulgaria, Canada, Israel, Moldova, Poland, Romania, and Serbia) randomized, double-blind, controlled clinical trial in moderate-to-severe plaque psoriasis (ClinicalTrials.gov identifier: NCT03168256). […] Eligible patients were randomly assigned to these arms in a 3:3:3:2 ratio. Blinding was maintained using a double-dummy technique. The second segment (Weeks 16-32) included 3 treatment arms, as at Week 16, the patients in the placebo arm were re-randomized to piclidenoson 2 mg BID, piclidenoson 3 mg BID, or apremilast (dose-titrated over 6 days to 30 mg BID) in a 1:1:1 ratio and treated through Week 32. Those originally assigned to piclidenoson or apremilast remained on their initially assigned treatment through Week 32. Blinding was maintained through Week 32. Patients were evaluated every 2 weeks for efficacy and safety.
# Safety assessments included treatment emergent adverse events (TEAEs) and changes in vital signs, physical examination, clinical laboratory tests (liver, kidney, hematology, chemistry, and urinalysis), and electrocardiogramdings.
# Overall, 4 analysis populations were defined: The safety population included all patients who received ≥1 dose of piclidenoson; the intent-to-treat (ITT) population included all those in the safety population with at least one PASI score recorded post-BL and excluded patients who withdrew prior to Week 16 due to COVID-19-related study suspension; the modified ITT (mITT) population, which was used for the Week 16 efficacy analyses, included all ITT patients except one patient in the placebo arm who was excluded due to major protocol violations that were not captured in the original data; and lastly, the per protocol (PP) population, which was used for the Week 32 analyses, and included all ITT patients who had no major protocol violations on or before Week 16 and who completed Week 16 of the study. Exclusion from the PP population was finalized prior to any unblinded analyses. The analyses conducted for Week 32 were performed separately for patients who were initially randomized to piclidenoson or apremilast and for those who were initially randomized to the placebo group.
# Descriptive statistics were used to summarize patient characteristics and safety. […] If a patient had more than one TEAE with the same PT, the patient was counted once.
# [4] = piclidenoson 2 mg BID, Weeks 0-32, safety population N = 179
# [5] = piclidenoson 3 mg BID, Weeks 0-32, safety population N = 173
# [6] = apremilast 30 mg BID, Week 32, PP population
# [7] = apremilast 30 mg BID, Weeks 0-32, safety population N = 177
smiles,measurement,setting,value
"CNC(=O)[C@H]1O[C@@H](n2cnc3c(NCc4cccc(I)c4)ncnc32)[C@H](O)[C@@H]1O [Piclidenoson, methyl 1-[N^6-(3-iodobenzyl)-adenin-9-yl]-β-D-ribofuronamide]",proportion of patients achieving PGA2 (0 or 1),"[1]; piclidenoson 2 mg BID, Week 16, mITT population, p=0.027 vs placebo",11.8%±2.8%
same,proportion of patients achieving PASI 50,"[1]; piclidenoson 2 mg BID, Week 16, mITT population, p=0.060 vs placebo",26.0%
same,proportion of patients achieving PASI 75,"[1]; piclidenoson 2 mg BID, Week 16, mITT population, p=0.075 vs placebo",7.9%±2.4%
same,proportion of patients achieving PDI improvement from BL,"[1]; piclidenoson 2 mg BID, Week 16, mITT population, p=0.70 vs placebo",63.3%
same,proportion of patients achieving PASI 75,"[1]; piclidenoson 2 mg BID, Week 32, PP population, initially randomized to active treatment, noninferiority vs apremilast p=0.429",20.8%
same,proportion of patients with PGA2 of 0 or 1,"[1]; piclidenoson 2 mg BID, Week 32, PP population, noninferiority vs apremilast p=0.417",18.9%
same,proportion of patients achieving improvement from BL in PDI,"[1]; piclidenoson 2 mg BID, Week 32, PP population, noninferiority vs apremilast p=0.66",48.1%
same,proportion of patients achieving PASI 50,"[1]; piclidenoson 2 mg BID, Week 32, PP population, noninferiority vs apremilast p=0.75",17.0%
same,proportion of patients achieving PASI 75,"[1]; piclidenoson 3 mg BID, Week 16, mITT population, p=0.037 vs placebo",9.7%±1.8%
same,proportion of patients achieving PASI 75,"[1]; piclidenoson 3 mg BID, Week 16, mITT population, p=0.037 vs placebo, listed as piclidenoson",9.7%
same,proportion of patients achieving PGA2 (0 or 1),"[1]; piclidenoson 3 mg BID, Week 16, mITT population, p=0.068 vs placebo",10.7%±3.0%
same,proportion of patients achieving PASI 50,"[1]; piclidenoson 3 mg BID, Week 16, mITT population, p=0.475 vs placebo",19.4%
same,proportion of patients achieving PDI improvement from BL,"[1]; piclidenoson 3 mg BID, Week 16, mITT population, p=1.00 vs placebo",58.3%
same,patients achieving improvement from baseline in PDI (number/arm total),"[1]; piclidenoson 3 mg BID, Week 32, PP population",51/88
same,proportion of patients achieving PASI 75,"[1]; piclidenoson 3 mg BID, Week 32, PP population, initially randomized to active treatment, noninferiority vs apremilast p=0.881",17.0%
same,proportion of patients achieving improvement from BL in PDI,"[1]; piclidenoson 3 mg BID, Week 32, PP population, noninferiority vs apremilast p=0.072",58.0%
same,proportion of patients achieving PASI 50,"[1]; piclidenoson 3 mg BID, Week 32, PP population, noninferiority vs apremilast p=0.49",19.3%
same,proportion of patients with PGA2 of 0 or 1,"[1]; piclidenoson 3 mg BID, Week 32, PP population, noninferiority vs apremilast p=0.777",15.9%
same,exposure as measured by both Cmax and AUC,[2],similar
same,safety profile,[3]; 3 mg dose of piclidenoson,excellent and better than apremilast
same,safety profile compared with placebo,"[3]; both piclidenoson dosages, placebo used only Week 0 through Week 16",generally comparable to that of placebo
same,safety profile compared with apremilast,[3]; piclidenoson 2 mg BID and 3 mg BID,more favorable than that of apremilast
same,patients who withdrew from the study due to TEAEs,"[3]; piclidenoson 2 mg BID arm, Weeks 0-32",2
same,tolerability,[3]; piclidenoson 2 mg BID,well-tolerated
same,Incidence of TEAE: GI disorders: Any,[3]; [4],2.8%
same,Incidence of TEAE: Infections/infestations: Nasopharyngitis,[3]; [4],2.2%
same,Incidence of TEAE: Infections/infestations: Urinary tract infection,[3]; [4],3.4%
same,Incidence of TEAE: Nervous system: Any,[3]; [4],1.7%
same,serious TEAE (number),"[3]; piclidenoson 2 mg BID, arterial embolism",1
same,patients who withdrew from the study due to TEAEs,"[3]; piclidenoson 3 mg BID arm, Weeks 0-32",5
same,tolerability,[3]; piclidenoson 3 mg BID,well-tolerated
same,Incidence of TEAE: GI disorders: Any,[3]; [5],1.2%
same,Incidence of TEAE: Infections/infestations: Nasopharyngitis,[3]; [5],2.9%
same,Incidence of TEAE: Nervous system: Any,[3]; [5],1.7%
same,serious TEAE (number),"[3]; piclidenoson 3 mg BID, osteomyelitis",1
"CCOc1cc([C@@H](CS(C)(=O)=O)N2C(=O)c3cccc(NC(C)=O)c3C2=O)ccc1OC [Apremilast, apremilast, reference compound]",patients achieving improvement from baseline in PDI (number/arm total),[1]; [6],59/108
same,proportion of patients achieving PASI 50,[1]; [6],25.2%
same,proportion of patients achieving improvement from BL in PDI,[1]; [6],55.1%
same,proportion of patients with PGA2 of 0 or 1,[1]; [6],24.3%
same,proportion of patients achieving PASI 75,"[1]; apremilast 30 mg BID, Week 32, PP population, initially randomized to active treatment",26.2%
same,Incidence of TEAE: GI disorders: Any,[3]; [7],7.3%
same,Incidence of TEAE: Nervous system: Any,[3]; [7],9.6%
same,serious TEAE (number),"[3]; apremilast 30 mg BID, pneumonia",1
same,patients who withdrew from the study due to TEAEs,"[3]; apremilast arm, Weeks 0-32",1
